One test addresses recombinant hAQP4 (AQP4) (Homo sapiens, UniProt P55087). Description: biochemical.
Test [1] addresses T1, A2AR (human A2A receptor) (Homo sapiens, UniProt P29274). Description: intrinsic tryptophan fluorescence quenching. The test is classed as binding.
For test [2], the target named is T1, A2AR (human A2A receptor). Description: displacement of [3H]ZM-241385 from crude Pichia membranes. The format is binding.

T1 sequence (P29274 whole entry): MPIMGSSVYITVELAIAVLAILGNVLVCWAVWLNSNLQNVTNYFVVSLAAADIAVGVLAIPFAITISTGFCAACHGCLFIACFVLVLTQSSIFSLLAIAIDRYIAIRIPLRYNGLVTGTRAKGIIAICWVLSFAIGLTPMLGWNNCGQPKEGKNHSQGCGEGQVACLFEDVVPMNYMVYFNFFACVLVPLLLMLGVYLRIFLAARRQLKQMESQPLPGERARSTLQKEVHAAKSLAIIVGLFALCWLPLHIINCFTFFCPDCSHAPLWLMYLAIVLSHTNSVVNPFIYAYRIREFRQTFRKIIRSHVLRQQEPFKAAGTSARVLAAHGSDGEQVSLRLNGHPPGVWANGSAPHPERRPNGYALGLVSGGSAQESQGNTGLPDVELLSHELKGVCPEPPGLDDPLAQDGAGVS
Sequence of recombinant hAQP4 (AQP4) (P55087 whole entry): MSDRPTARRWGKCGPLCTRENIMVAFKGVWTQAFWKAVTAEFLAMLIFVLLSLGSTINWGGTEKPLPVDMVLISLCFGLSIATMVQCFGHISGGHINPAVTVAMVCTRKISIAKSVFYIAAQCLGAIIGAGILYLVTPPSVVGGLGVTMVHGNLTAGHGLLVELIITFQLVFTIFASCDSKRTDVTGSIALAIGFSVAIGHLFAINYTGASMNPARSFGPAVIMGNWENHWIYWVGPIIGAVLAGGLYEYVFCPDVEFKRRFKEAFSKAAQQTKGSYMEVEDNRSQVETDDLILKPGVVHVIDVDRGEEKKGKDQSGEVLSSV

Consider `O=C(Nc1cc(C(F)(F)F)cc(C(F)(F)F)c1)c1cc(Cl)ccc1O` [AER-270, N-(3,5-bis(trifluoromethyl)phenyl)-5-chloro-2-hydroxybenzamide], for which, on recombinant hAQP4 (AQP4), the equilibrium dissociation constant (Kd) was found to be 17 ± 3.1 µM.

In test [1], `O=C(Nc1nncs1)c1cccnc1` [TGN-020, N-1,3,4-thiadiazol-2-yl-3-pyridinecarboxamide] yielded a Kd of 54 µM. Also, in test [2], the half-maximal inhibitory concentration (IC50) was 20 µM.

(Values after doi:10.1101/2024.12.04.625365v1 (biorxiv, 2024).)
